Results from patent US12502391B2, “Multi-kinase inhibitors of VEGF and TGF beta and uses thereof” (AIVIVA BIOPHARMA, INC., priority 2018, dated 2025).
“And” between values parts separate entries of the source, which are not always exact repeats. Identical values can stand only once.

Legend:
[1] = tested on: TGF-beta 1; assay: Dermal TGFb1 levels (ELISA) after linear incisional wounds in minipigs; assay type: in vivo, Gottingen Minipigs; conditions: approximately 16 mg intradermally once per incisional wound, biopsies days 4, 7, 9 post-dosing
Description: The purpose of this study was to evaluate the topical effects of axitinib, nintedanib, sorafenib and lenvatinib when administered via intradermal injection to the dorsal skin along linear incisions of minipigs. Linear incisional wound was made to elicit inflammatory and wound healing process in the skin. After dosing, mammals were observed post dose for 9 days to assess the levels of TGFb1 expressions in the skin.
Three male Gottingen Minipigs® dosed once via intradermal injection along the edges of each of the linear incision wound sites for each mammal (wounds on the dorsum, perpendicular to the spine, approximately 3 cm in length and 3 cm distance from the spine). Each incisional wound received approximately 16 mg of the test compound intradermally once along both sides of the linear wound.
On days of 4, 7, and 9 post-dosing, one 4 mm dermal punch biopsy was collected for each incisional wound and processed for TGF-beta 1 analysis with ELISA, using a commercial kit (e.g., the kit from Thermo Fisher or other vendors).

[2] = tested on: TGF beta1 mRNA; assay: TGF beta1 mRNA expression (qRT-PCR) in rabbit ear hypertrophic scar model; assay type: in vivo, New Zealand white rabbits; conditions: 1% w/w, 100 μl intradermal on days 15 and 29, harvest Day 43
Description: The objective of this study was to examine the effect of test compounds on wound healing and TGF beta expression after dermal injury in a rabbit ear hypertrophic scar model.
In New Zealand white rabbits, maintained under a surgical plane of anesthesia, trauma stimulation of the skin on the ventral surface of both ears is initiated on Day 1. Trauma sites are evaluated on Days 8, 15, 22, 29, 36, and 43. On days 15 and 29, each site is dosed with test compounds (e.g., 1% w/w, 100 μl) by intradermal or intralesional injections.
Mammals are euthanized on Day 43, and the trauma sites are harvested and frozen for TGF beta analysis using quantitative RT-PCR (qRT-PCR) (e.g., A. K. Johnson et al., Dev. Comp. Immunol., 2006; 30(5): 473-84). TGF beta1 mRNA expression levels in treated trauma samples are compared to the expression level in the untreated trauma sample.

[3] = tested on: suture-induced ocular fibrosis; assay: Rabbit corneal suture-induced ocular fibrosis model; assay type: in vivo, rabbits; conditions: 0.3% w/v eyedrops 35 uL three times daily for 10 days
Description: In order to investigate the anti-fibrotic effect of test compounds following wounding in the eye, a suture-induced ocular fibrosis model was used. Suture was placed intrastromally under a microscope in the cornea of rabbits. In each eye, one 9.0 silk suture was placed, in a vertical position, temporal to the corneal center and a second suture was placed nasal to the corneal center. Each suture had two stromal incursions approximately 2 mm from the limbus. Test compounds having certain spectrum of multikinase inhibition activities and/or vehicle were topically instilled (35 uL/eye) in the eyes three times daily for 10 days the day following surgery. The treatment groups include vehicle, nintedanib (0.3%, w/v), pirfenidone (1%, w/v), riociguat (0.3%, w/v), sorafenib (0.3%, w/v) and lenvatinib (0.3%, w/v). Six left eyes were used per treatment group.
The animals were sacrificed on Day 11 and the eyes enucleated and dissected for histopathological evaluation.

[4] = tested on: benign prostate hyperplasia; assay: Testosterone and phenylephrine induced benign prostate hyperplasia in rats; assay type: in vivo, Wistar rats; set-up: key to epithelial hyperplasia score, dorsolateral prostate, representative image / epithelial hyperplasia score, ventral prostate, representative image: severity grade 0 = not present to 5 = severe; conditions: TE and PE induced rats; for epithelial hyperplasia score, dorsolateral prostate, representative image / epithelial hyperplasia score, ventral prostate, representative image: intra-prostate injection 0.4 ml on days 1 and 18 (1% w/w; doxazosin mesylate 0.5%), severity grade 0 (not present) through 5 (severe), induced vehicle score=4; for glandular hyperplasia compared to untreated TE/PE induced prostates: intra-prostate injection on days 1 and 18
Description: BPH is a true hyperplastic process. Histologic studies have documented an increase in cell number. A study was conducted, therefore, to determine the effects of test compounds and vehicle on testosterone (TE) and phenylephrine (PE) induced benign prostate hyperplasia in rats. Male Wistar rats were induced with testosterone (2 mg/kg) plus phenylephrine (5 mg/kg) administered daily by subcutaneous injection on days 5 through 32. Vehicle or test compounds (all at 1% w/w), nintedanib, sunitinib, lenvatinib, and 0.5% doxazosin mesylate, were administered by intra-prostate injection (0.4 ml) in dorsolateral and ventral lobes on days 1 and 18. Animals were euthanized on day 32. Body weights were determined and prostate glands were harvested. The experimental design is outlined in Table 6.
At necropsy, the ventral and dorsolateral lobes of the prostate were separated and then cut into halves. The left halves were fixed in 10% neutral buffered formalin, sectioned, and stained with Hematoxylin and Eosin (H&E). Histological changes in these sections were scored. Epithelial hyperplasia was recognized as an increase in epithelial cells within normal-appearing gland profiles, primarily reflected by stratification of epithelial cells and increased presence of epithelial tufting and papillary projections. A severity grade of 0 (not present) through 5 (severe) was assigned to each sample.

[5] = tested on: full-thickness excision wounds; assay: Histology of full-thickness excision wounds in Yucatan minipigs (fibroplasia, neovascularization); assay type: in vivo; conditions: for Neovascularization; dermis, average score / Fibroplasia; dermis, average score: Yucatan minipig wound sites after two doses, Day 59, scale 1 (minimal) to 5 (severe); for Neovascularization; dermis, average score: untreated 2.33; for Fibroplasia; dermis, average score: untreated 3.33
Description: (§1) In this experiment, multiple full-thickness excision wounds were made to the dorsum of Yucatan minipigs, and the wound sites were allowed to be re-epithelialized adequately. At four weeks post-wound, the wound sites had normal to pink vascularity and had pliability. Epidermal hyperplasia was observed, as expected for regenerative responses in the full-thickness wounds.
(§2) On Day 28 post-wound, a dose (e.g., 1%) of axitinib, nintedanib, riociguat, sorafenib, sunitinib, and/or lenvatinib was administered into the dermal tissue at or around the wound sites, once every two weeks on two occasions. One wound site was left untreated as the control for each pig. Please note that the particular parameters in this example are only for illustration. One skilled in the art would appreciate that the dosages, administration methods, treatment regimen, and the administration sites may be varied to achieve similar results.
On Day 59 post wound, the minipigs were sacrificed and dermal tissues were collected for qualitative and quantitative evaluation using hematoxylin and eosin, and Mason's Trichrome staining. Dermal fibroplasia was characterized by increased numbers of fibroblasts in the dermis suspended in variable amounts of collagen in wounds.

[6] = tested on: TGF-β1 mRNA; assay: TGF-β1 mRNA expression (qRT-PCR) in Yucatan pig skin wound sites; assay type: in vivo, Yucatan minipigs; conditions: Yucatan pig skin wound sites after treatments; for TGF-β1 mRNA Expression Fold Relative to Untreated Unwounded Control: individual animals 7369, 7370, 7371, duplicate sets 1 and 2, beta actin reference gene
Description: as §1, §2
In addition, total mRNA was isolated from skin biopsies of the treated wound sites and the untreated unwounded sites of the pigs. The mRNA samples were used to prepare cDNA and analyzed via qRT-PCR. The TGF-β1 expression levels were assessed using beta actin as a reference gene.

SMILES | suppression of dermal TGF beta 1 expression over time [1] | mean folds of TGF beta mRNA expression versus untreated wound sample [2] | alpha SMA (smooth muscle actin) staining by immunohistochemistry [3] | areas of neovascularization on the corneal surface [3] | fibroplasia and/or collagen density by histological staining [3] | epithelial hyperplasia score, dorsolateral prostate, representative image [4] | epithelial hyperplasia score, ventral prostate, representative image [4] | glandular hyperplasia compared to untreated TE/PE induced prostates [4] | Neovascularization; dermis, average score [5] | Fibroplasia; dermis, average score [5] | TGF-β1 mRNA Expression Fold Relative to Untreated Unwounded Control [6] | reduction of TGF-β1 mRNA expression levels at treated wounds [6] | neovascularization and dermal fibroplasia relative to the untreated wound ([5]; Yucatan minipig, two biweekly treatments)
COc1cc2nccc(Oc3ccc(NC(=O)NC4CC4)c(Cl)c3)c2cc1C(N)=O [lenvatinib] | very effective in suppressing the expression of TGF beta 1 | lower than the expression level in the untreated wound sample | significantly reduced alpha SMA (smooth muscle actin) staining | efficacious in reducing the areas of neovascularization | significantly reduced fibroplasia and/or collagen density | 2 | 3 | demonstrated reduction of glandular hyperplasia | (2.33) | (3.00) | 2.27 fold and 0.62 fold and 0.89 fold and 0.38 fold and 0.69 fold and 2.02 fold |  | 
CNC(=O)c1cc(Oc2ccc(NC(=O)Nc3ccc(Cl)c(C(F)(F)F)c3)cc2)ccn1 [sorafenib] | not as effective | lower than the expression level in the untreated wound sample |  | inhibition of corneal neovascularization |  |  |  |  | (2.33) | (3.00) | 0.84 fold and 0.60 fold and 0.53 fold and 0.43 fold and 0.55 fold and 0.89 fold | most effective | 
COC(=O)c1ccc2c(c1)NC(=O)/C2=C(\Nc1ccc(N(C)C(=O)CN2CCN(C)CC2)cc1)c1ccccc1 [nintedanib] | very effective in suppressing the expression of TGF beta 1 | lower than the expression level in the untreated wound sample | significantly reduced alpha SMA (smooth muscle actin) staining | efficacious in reducing the areas of neovascularization | significantly reduced fibroplasia and/or collagen density | 3 | 3 | demonstrated reduction of glandular hyperplasia | (1.67) | (2.33) | 0.70 fold and 0.66 fold and 0.55 fold and 0.56 fold and 0.63 fold and 0.87 fold | most effective | noticeably reduced neovascularization with a corresponding reduced dermal fibroplasia
